From patent US20080021067A1, “Methods For The Treatment Of Substance Abuse And Addiction” (priority 2004, published 2008)
Entries after “also recorded” stand apart in the source; their conditions may differ.

Columns and labels:
hMC1bR = hMC1bR (Homo sapiens, UniProt Q01726); experiment: cAMP functional assay (agonist); type: cell-based; conditions: selective functional activity
Procedure: (§1) Cells (for example, CHO- or L-cells or other eukaryotic cells) expressing a human melanocortin receptor (see e.g. Yang-Y K; Ollmann-M M; Wilson-B D; Dickinson-C; Yamada-T; Barsh-G S; Gantz-I; Mol-Endocrinol. 1997 March; 11(3): 274-80) were dissociated from tissue culture flasks by rinsing with Ca and Mg free phosphate buffered saline (14190-136, Life Technologies, Gaithersburg, Md.) and detached following 5 min incubation at 37° C. with enzyme free dissociation buffer (S-0,4-B, Specialty Media, Lavellette, N.J.). Cells were collected by centrifugation and resuspended in Earle's Balanced Salt Solution (14015-069, Life Technologies, Gaithersburg, Md.) with additions of 10 mM HEPES pH 7.5, 5 mM MgCl2, 1 mM glutamine and 1 mg/ml bovine serum albumin. Cells were counted and diluted to 1 to 5×10^6/mL. The phosphodiesterase inhibitor 3-isobutyl-1-methylxanthine was added to cells to 0.6 mM.
(§2) Agonist Assay: Test compounds were diluted in dimethylsulfoxide (DMSO) (10^−5 to 10^−10 M) and 0.1 volume of compound solution was added to 0.9 volumes of cell suspension; the final DMSO concentration was […]. After room temperature incubation for 45 min, cells were lysed by incubation at 100° C. for 5 min to release accumulated cAMP.
(§3) cAMP was measured in an aliquot of the cell lysate with the Amersham (Arlington Heights, Ill.) cAMP detection assay (RPA556). The amount of cAMP production which resulted from an unknown compound was compared to that amount of cAMP produced in response to alpha-MSH which was defined as a 100% agonist. The EC50 is defined as the compound concentration which results in half maximal stimulation, when compared to its own maximal level of stimulation.

hMC2R = target: T1, hMC2R (Homo sapiens, UniProt Q01718); experiment: cAMP functional assay (agonist); type: cell-based
T1 construct: expressed in transfected cells; host or cells: CHO- or L-cells or other eukaryotic cells
T1 sequence (Q01718 whole entry): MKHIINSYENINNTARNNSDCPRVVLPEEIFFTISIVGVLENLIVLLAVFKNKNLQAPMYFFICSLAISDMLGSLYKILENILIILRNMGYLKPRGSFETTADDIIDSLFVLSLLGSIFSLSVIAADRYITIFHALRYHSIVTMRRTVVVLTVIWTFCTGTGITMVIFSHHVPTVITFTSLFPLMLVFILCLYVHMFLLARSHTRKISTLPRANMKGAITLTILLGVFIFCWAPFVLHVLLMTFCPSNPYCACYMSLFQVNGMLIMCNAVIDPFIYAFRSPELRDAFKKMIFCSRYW
Procedure: as §1, §2, §3

hMC5R [1] = target: T2, hMC5R (Homo sapiens, UniProt P33032); experiment: cAMP functional assay (agonist); type: cell-based
T2 construct: expressed in transfected cells; host or cells: CHO- or L-cells or other eukaryotic cells
T2 sequence (P33032 whole entry): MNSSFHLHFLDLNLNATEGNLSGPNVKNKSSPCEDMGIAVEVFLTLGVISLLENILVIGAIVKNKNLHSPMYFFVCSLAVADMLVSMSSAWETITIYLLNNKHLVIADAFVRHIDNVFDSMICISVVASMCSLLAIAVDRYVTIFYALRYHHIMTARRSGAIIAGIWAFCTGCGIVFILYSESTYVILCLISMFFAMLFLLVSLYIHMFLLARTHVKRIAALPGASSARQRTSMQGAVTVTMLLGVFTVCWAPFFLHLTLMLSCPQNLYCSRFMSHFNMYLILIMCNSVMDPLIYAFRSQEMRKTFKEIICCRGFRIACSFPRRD
Procedure: as §1, §2, §3

hMC3R [2] = target: T3, hMC3R (Homo sapiens, UniProt P41968); experiment: cAMP functional assay (agonist); type: cell-based
T3 construct: expressed in transfected cells; host or cells: CHO- or L-cells or other eukaryotic cells
T3 sequence (P41968 whole entry): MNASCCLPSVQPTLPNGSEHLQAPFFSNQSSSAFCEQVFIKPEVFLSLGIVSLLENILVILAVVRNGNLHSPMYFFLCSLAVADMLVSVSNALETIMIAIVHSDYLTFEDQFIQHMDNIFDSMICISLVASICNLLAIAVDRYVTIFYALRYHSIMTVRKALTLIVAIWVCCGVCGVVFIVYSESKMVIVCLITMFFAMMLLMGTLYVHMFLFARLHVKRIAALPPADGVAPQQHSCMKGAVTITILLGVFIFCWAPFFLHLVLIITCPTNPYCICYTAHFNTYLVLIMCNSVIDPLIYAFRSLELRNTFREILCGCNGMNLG
Procedure: as §1, §2, §3

Male Wistar rats = experiment: Maintenance operant nicotine self-administration; type: in vivo, rat
Procedure: Animals: Male Wistar rats were used in all experiments. Body weight was 180-200 g at the start of the experiments. Rats were housed 2-3 per cage with food and water available ad libitum. Lights were on a 12-hour light/dark cycle, with lights on at 0600. All procedures met the guidelines of the National Institutes of Health Guide for the Care and Use of Laboratory Animals.
Operant Nicotine Self-Administration: Nicotine (Sigma Chemical Co., St. Louis, Mo.) was added to saline to achieve a concentration of 0.03 mg/ml. Standard operant chambers (Med Associates, VT) housed in sound-attenuated chambers were used for nicotine self-administration. Syringe pumps delivered nicotine via tygon tubing. The two retractable levers were located 12 cm apart and 4 cm above the floor. Fluid delivery and recording of operant responding were controlled by microcomputer. Rats were trained on a […] fixed-ratio 4 (FR4) schedule to self-administer nicotine (0.03 mg/ml, 0.1 ml per delivery) in 60 minute sessions. Once reliable levels of nicotine-reinforced self-administration were achieved, the effect of Compound A (0, and 20 mg/kg) on maintenance levels of responding was investigated.

hMC5R [3] = target: T2, hMC5R; experiment: Membrane binding assay, 125I-NDP-alpha-MSH competition; conditions: ratio IC50 MC-5R / IC50 MC-4R
Procedure: (§4) The membrane binding assay was used to identify competitive inhibitors of ^125I-NDP-alpha-MSH binding to cloned human MCRs expressed in mouse L- or Chinese hamster ovary (CHO)-cells.
(§5) Cell lines expressing melanocortin receptors were grown in T-180 flasks containing selective medium of the composition: 1 L Dulbecco's modified Eagles Medium (DMEM) with 4.5 g L-glucose, 25 mM Hepes, without sodium pyruvate, (Gibco/BRl); 100 ml 10% heat-inactivated fetal bovine serum (Sigma); 10 mL 10,000 unit/mL penicillin & 10,000 μg/mL streptomycin (Gibco/BRl); 10 ml 200 mM L-glutamine (Gibco/BRl); 1 mg/mL geneticin (G418) (Gibco/BRl). The cells were grown at 37° C. with CO2 and humidity control until the desired cell density and cell number was obtained.
(§6) The medium was poured off and 10 mls/T-180 flask of enzyme-free dissociation media (Specialty Media Inc.) was added. The cells were incubated at 37° C. for 10 min or until cells sloughed off when flask was banged against hand.
(§7) The cells were harvested into 200 mL centrifuge tubes and spun at 1000 rpm, 4° C., for 10 min. […]
(§8) The mixture was filtered with Packard Microplate 196 filter apparatus using Packard Unifilter 96-well GF/C filter with 0.1% polyethyleneimine (Sigma). […] The top was sealed and the radioactivity quantitated in a Packard Topcount Microplate Scintillation counter.

hMC3R [4] = target: T3, hMC3R; experiment: as above; conditions: ratio IC50 MC-3R / IC50 MC-4R
Procedure: as §4, §5, §6, §7, §8

[5] = selective functional activity, 45 min

Chain of hMC1bR (Q01726 whole entry): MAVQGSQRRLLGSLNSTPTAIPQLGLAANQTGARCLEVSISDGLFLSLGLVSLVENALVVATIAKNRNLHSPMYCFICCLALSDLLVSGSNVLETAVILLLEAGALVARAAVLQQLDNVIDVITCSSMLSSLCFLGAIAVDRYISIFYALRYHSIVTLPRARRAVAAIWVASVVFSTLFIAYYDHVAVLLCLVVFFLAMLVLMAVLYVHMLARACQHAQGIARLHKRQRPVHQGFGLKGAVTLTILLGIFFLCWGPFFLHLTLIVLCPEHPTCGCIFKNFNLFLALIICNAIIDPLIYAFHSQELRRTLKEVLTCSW

EC50 for melanocortin 4 receptor lower than for melanocortin 1 receptor (hMC1bR): at least 120 fold
Selectivity cAMP EC50 2R/4R (hMC2R; ratio EC50 MC-2R / EC50 MC-4R): >714.2
EC50 for melanocortin 4 receptor lower than for melanocortin 2 receptor (hMC2R; [5]): at least 700 fold
Selectivity cAMP EC50 5R/4R (hMC5R [1]; ratio EC50 MC-5R / EC50 MC-4R): 100
EC50 for melanocortin 4 receptor lower than for melanocortin 5 receptor (hMC5R [1]; [5]): at least 100 fold
Selectivity cAMP EC50 3R/4R (hMC3R [2]; ratio EC50 MC-3R / EC50 MC-4R): 65.71
EC50 for melanocortin 4 receptor lower than for melanocortin 3 receptor (hMC3R [2]; [5]): at least 65 fold
Selectivity Binding IC50 5R/4R (hMC5R [3]): 36.36
Selectivity Binding IC50 3R/4R (hMC3R [4]): 163.6
Compound: CC[C@H](NC(C)=O)c1cc(Cl)ccc1C1CCN(C(=O)[C@@H]2CN(C(C)(C)C)C[C@H]2c2ccc(F)cc2F)CC1 [Compound A]
effect on maintenance levels of nicotine self-administration (nicotine infusions) (Male Wistar rats; 20 mg/kg po prior to testing, 60 minute session, vs baseline (p=0.0001)): significant reductions from baseline levels; also recorded: significant reduction
response rates on the alternate (non-drug reinforced) lever (Male Wistar rats; Wistar rats, any dose tested (0, 20 mg/kg)): not significantly altered; also recorded: no significant effects
reduction of nicotine self administration (Male Wistar rats; Wistar rats, pre-treatment, maintenance period of regular nicotine use): approximately 85%
